# Measured values published in ChEMBL document CHEMBL4414590, “Discovery of SIAIS178 as an Effective BCR-ABL Degrader by Recruiting Von Hippel-Lindau (VHL) E3 Ubiquitin Ligase” (J Med Chem, 2019).
# Active and inactive are the calls of the source. No cut-off for these calls is given here.
# Legend:
# K562 [1] = experiment: Growth inhibition of human K562 cells incubated for 2 days by CCK8 assay; assay type: functional, cell-based; conditions: K562, 48 h
# [2] = molecular target: T1, Bcr/Abl fusion protein (Homo sapiens) (UniProt P00519+P11274); experiment: Inhibition of BCR-ABL phosphorylation in human K562 cells at 1 to 100 nM by Western blot analysis; assay type: cell-based
# T1 sequence (P00519 whole entry, looked up, the tested form may be a part): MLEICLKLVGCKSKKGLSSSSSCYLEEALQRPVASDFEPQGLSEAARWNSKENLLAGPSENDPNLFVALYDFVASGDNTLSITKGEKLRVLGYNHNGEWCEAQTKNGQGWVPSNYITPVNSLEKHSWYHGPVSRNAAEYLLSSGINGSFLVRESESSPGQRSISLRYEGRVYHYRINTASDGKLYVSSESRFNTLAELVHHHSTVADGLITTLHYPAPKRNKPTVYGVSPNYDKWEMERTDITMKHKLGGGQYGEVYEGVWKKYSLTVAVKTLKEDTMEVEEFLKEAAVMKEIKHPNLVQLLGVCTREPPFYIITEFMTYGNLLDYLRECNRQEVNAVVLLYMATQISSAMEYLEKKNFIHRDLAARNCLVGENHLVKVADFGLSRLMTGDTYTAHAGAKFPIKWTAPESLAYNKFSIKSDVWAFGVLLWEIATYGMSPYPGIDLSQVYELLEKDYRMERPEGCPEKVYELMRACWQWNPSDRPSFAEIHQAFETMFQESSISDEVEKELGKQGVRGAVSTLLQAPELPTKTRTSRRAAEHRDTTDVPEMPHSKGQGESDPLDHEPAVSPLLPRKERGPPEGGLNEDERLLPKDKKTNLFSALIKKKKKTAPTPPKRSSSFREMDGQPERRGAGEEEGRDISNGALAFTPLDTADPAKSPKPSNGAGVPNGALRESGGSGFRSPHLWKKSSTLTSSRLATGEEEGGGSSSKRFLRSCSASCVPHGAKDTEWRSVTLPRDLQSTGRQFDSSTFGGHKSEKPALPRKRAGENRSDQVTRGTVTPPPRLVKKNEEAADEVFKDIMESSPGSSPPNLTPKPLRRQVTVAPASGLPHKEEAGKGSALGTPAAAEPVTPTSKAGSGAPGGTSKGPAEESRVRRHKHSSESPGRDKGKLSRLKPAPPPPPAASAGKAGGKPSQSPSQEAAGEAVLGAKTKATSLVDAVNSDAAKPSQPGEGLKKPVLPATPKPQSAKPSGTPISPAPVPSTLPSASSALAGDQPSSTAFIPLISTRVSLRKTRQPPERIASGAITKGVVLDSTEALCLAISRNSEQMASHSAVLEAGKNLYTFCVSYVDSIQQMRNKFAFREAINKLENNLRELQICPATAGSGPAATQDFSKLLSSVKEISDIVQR
# T1 sequence (P11274 whole entry, looked up, the tested form may be a part): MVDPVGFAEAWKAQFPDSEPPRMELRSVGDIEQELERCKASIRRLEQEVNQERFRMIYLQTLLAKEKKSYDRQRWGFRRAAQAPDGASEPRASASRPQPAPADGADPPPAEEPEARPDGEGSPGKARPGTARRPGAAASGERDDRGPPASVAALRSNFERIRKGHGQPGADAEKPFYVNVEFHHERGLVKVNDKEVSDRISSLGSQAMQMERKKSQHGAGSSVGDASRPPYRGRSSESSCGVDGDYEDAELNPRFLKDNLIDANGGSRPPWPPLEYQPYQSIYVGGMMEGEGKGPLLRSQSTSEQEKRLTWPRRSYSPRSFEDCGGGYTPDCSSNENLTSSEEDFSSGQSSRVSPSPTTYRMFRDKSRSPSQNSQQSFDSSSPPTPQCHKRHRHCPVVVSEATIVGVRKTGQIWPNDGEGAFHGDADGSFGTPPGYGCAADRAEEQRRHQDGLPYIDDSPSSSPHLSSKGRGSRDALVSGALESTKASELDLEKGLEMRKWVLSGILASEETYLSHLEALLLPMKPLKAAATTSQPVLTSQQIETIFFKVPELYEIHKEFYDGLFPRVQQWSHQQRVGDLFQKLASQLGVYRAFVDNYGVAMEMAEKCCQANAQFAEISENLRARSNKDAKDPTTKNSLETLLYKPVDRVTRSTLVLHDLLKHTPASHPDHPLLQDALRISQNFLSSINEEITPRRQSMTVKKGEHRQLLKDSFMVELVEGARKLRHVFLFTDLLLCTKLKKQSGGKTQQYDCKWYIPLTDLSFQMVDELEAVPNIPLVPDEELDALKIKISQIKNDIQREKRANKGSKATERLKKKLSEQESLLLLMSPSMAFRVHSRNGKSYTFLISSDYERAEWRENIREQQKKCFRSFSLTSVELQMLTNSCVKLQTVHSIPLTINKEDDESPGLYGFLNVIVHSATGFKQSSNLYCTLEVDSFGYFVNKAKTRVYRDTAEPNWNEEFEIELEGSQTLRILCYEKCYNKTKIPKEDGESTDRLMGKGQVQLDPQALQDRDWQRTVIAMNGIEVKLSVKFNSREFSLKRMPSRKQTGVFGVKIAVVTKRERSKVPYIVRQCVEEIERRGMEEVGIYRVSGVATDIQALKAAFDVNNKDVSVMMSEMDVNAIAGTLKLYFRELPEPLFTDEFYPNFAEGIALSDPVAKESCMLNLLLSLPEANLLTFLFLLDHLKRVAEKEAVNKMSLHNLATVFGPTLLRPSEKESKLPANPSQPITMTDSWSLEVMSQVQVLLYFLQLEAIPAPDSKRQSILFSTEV
# [3] = molecular target: T1, Bcr/Abl fusion protein (Homo sapiens); experiment: Inhibition of BCR-ABL in human K562 cells assessed as reduction in STAT5 phosphorylation at 1 to 100 nM by Western blot analysis; assay type: cell-based
# [4] = molecular target: T1, Bcr/Abl fusion protein (Homo sapiens); experiment: Inhibition of BCR-ABL in human KU812 cells assessed as reduction in STAT5 phosphorylation at 1 to 30 nM by Western blot analysis; assay type: cell-based
# KU812 cell line = experiment: Growth inhibition of human KU812 cells incubated for 2 days by CCK8 assay; assay type: functional, cell-based
# SUP-B15 = experiment: Growth inhibition of human SUP-B15 cells incubated for 2 days by CCK8 assay; assay type: functional, cell-based
# HL-60 = experiment: Growth inhibition of human HL60 cells incubated for 2 days by CCK8 assay; assay type: functional, cell-based
# HEK293 = experiment: Growth inhibition of human HEK293 cells incubated for 2 days by CCK8 assay; assay type: cell-based; conditions: hek293, 48 h
# [5] = molecular target: T2, von Hippel-Lindau disease tumor suppressor/Tyrosine-protein kinase ABL1/Breakpoint cluster region protein (Homo sapiens, UniProt P00519+P11274+P40337); experiment: Protac activity against VHL/BCR-ABL in human K562 cells assessed as induction of BCR-ABL degradation at 100 nM incubated up to 24 hrs by Western blot analysis; assay type: cell-based; conditions: TDE = time-dependent effect
# T2 sequence (P00519 whole entry, looked up): as the sequence (P00519 whole entry, looked up, the tested form may be a part) above
# T2 sequence (P11274 whole entry, looked up): as the sequence (P11274 whole entry, looked up, the tested form may be a part) above
# T2 sequence (P40337 whole entry, looked up): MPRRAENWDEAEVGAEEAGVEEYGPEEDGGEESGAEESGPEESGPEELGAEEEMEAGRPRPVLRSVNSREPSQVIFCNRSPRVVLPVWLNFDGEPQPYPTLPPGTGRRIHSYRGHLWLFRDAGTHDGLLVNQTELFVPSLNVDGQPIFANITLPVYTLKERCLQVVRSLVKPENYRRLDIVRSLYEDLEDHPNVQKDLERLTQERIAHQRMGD
# [6] = molecular target: T2, von Hippel-Lindau disease tumor suppressor/Tyrosine-protein kinase ABL1/Breakpoint cluster region protein; experiment: Protac activity against VHL/BCR-ABL in human K562 cells assessed as induction of BCR-ABL degradation pre-treated with 4 uM VHL1 for 2 hrs followed by compound addition at 100 nM and further incubated for 8 hrs by Western blot analysis; assay type: cell-based
# [7] = molecular target: T2, von Hippel-Lindau disease tumor suppressor/Tyrosine-protein kinase ABL1/Breakpoint cluster region protein; experiment: Protac activity against VHL/BCR-ABL in human K562 cell lysates assessed as induction of pull down of endogenous BCR-ABL at 10 to 100 nM in presence of excess immobilized GST-VBC bait by GST-pull down assay; assay type: subcellular; conditions: Lysate
# [8] = molecular target: T2, von Hippel-Lindau disease tumor suppressor/Tyrosine-protein kinase ABL1/Breakpoint cluster region protein; experiment: Induction of ternary complex formation between VHL and BCR-ABL (unknown origin) expressed in HEK293 cells expressing N-terminal BCR-ABL LgBit fusion protein and N-terminal SmBit-VHL fusion protein at 1 uM incubated for 1 hr by NanoBit technology based luciferase complementation assay; assay type: cell-based
# [9] = molecular target: T2, von Hippel-Lindau disease tumor suppressor/Tyrosine-protein kinase ABL1/Breakpoint cluster region protein; experiment: Induction of ternary complex formation between VHL and BCR-ABL (unknown origin) expressed in HEK293 cells expressing N-terminal BCR-ABL LgBit fusion protein and N-terminal SmBit-VHL fusion protein pre-treated with 10 uM dasatinib for 2 hrs followed by compound addition at 1 uM and further incubated for 1 hr by NanoBit technology based luciferase complementation assay; assay type: cell-based
# [10] = molecular target: Tyrosine-protein kinase ABL1 (Homo sapiens) (UniProt P00519); experiment: Binding affinity to human phosphorylated ABL1 (S229 to K512 residues) expressed in mammalian expression system assessed as residual binding level at 10 uM by Kinomescan method relative to control
# [11] = molecular target: Tyrosine-protein kinase ABL1 (Homo sapiens) (UniProt P00519); experiment: Binding affinity to human non-phosphorylated ABL1 (S229 to K512 residues) expressed in mammalian expression system assessed as residual binding level at 10 uM by Kinomescan method relative to control
# [12] = Permeability in human Caco2 cells at 10 uM incubated for 120 mins by LC-MS/MS analysis; assay type: ADME, cell-based; conditions: caco-2, 2 h
# K562 [13] = experiment: Effect on YES protein level in human K562 cells at 100 nM incubated for 16 hrs by multiplexed tandem mass spectrometry; assay type: ADME, cell-based; conditions: k562, 16 h, 0.1 µM
# K562 [14] = experiment: Effect on LYN protein level in human K562 cells at 100 nM incubated for 16 hrs by multiplexed tandem mass spectrometry; assay type: ADME, cell-based; conditions: k562, 16 h, 0.1 µM
# [15] = molecular target: von Hippel-Lindau disease tumor suppressor/Tyrosine-protein kinase ABL2 (Homo sapiens) (UniProt P42684+P40337); experiment: Protac activity against VHL/ABL2 in human K562 cells assessed as reduction in ABL2 protein levels at 1 to 100 nM incubated for 16 hrs by Western blot analysis; assay type: cell-based
# [16] = molecular target: von Hippel-Lindau disease tumor suppressor/Proto-oncogene tyrosine-protein kinase Src (Homo sapiens) (UniProt P12931+P40337); experiment: Protac activity against VHL/Src in human K562 cells assessed as reduction in Src protein levels at 1 to 100 nM incubated for 16 hrs by Western blot analysis; assay type: cell-based
# [17] = molecular target: von Hippel-Lindau disease tumor suppressor/Tyrosine-protein kinase Yes (Homo sapiens) (UniProt P07947+P40337); experiment: Protac activity against VHL/YES in human K562 cells assessed as reduction in Yes protein levels at 1 to 100 nM incubated for 16 hrs by Western blot analysis; assay type: cell-based
# [18] = molecular target: von Hippel-Lindau disease tumor suppressor/Mast/stem cell growth factor receptor Kit (Homo sapiens) (UniProt P10721+P40337); experiment: Protac activity against VHL/KIT in human K562 cells assessed as reduction in Kit protein levels at 1 to 100 nM incubated for 16 hrs by Western blot analysis; assay type: cell-based
# [19] = Toxicity in NOD/SCID mouse xenografted with luciferse expressing human K562 cells assessed as effect on body weight at 5 to 15 mg/kg, ip QD for 12 days; assay type: organism-based; conditions: in vivo, 288 h
# Mus musculus = experiment: Inhibition of BCR-ABL phosphorylation in NOD/SCID mouse xenografted with luciferse expressing human K562 cells at 5 to 15 mg/kg, ip QD for 4 days by Western blotting analysis; assay type: functional, organism-based
# [20] = molecular target: T2, von Hippel-Lindau disease tumor suppressor/Tyrosine-protein kinase ABL1/Breakpoint cluster region protein; experiment: Protac activity against VHL/BCR-ABL (unknown origin) expressed in human U937 cells assessed as induction of BCR-ABL degradation incubated for 16 hrs by Western blot analysis; assay type: cell-based
# [21] = tested on: von Hippel-Lindau disease tumor suppressor/Tyrosine-protein kinase ABL1/Breakpoint cluster region protein (Homo sapiens), P00519+P11274+P40337 [G250E]; experiment: Protac activity against VHL/BCR-ABL G250E mutant (unknown origin) expressed in human U937 cells assessed as induction of BCR-ABL degradation incubated for 16 hrs by Western blot analysis; assay type: cell-based
# [22] = tested on: von Hippel-Lindau disease tumor suppressor/Tyrosine-protein kinase ABL1/Breakpoint cluster region protein (Homo sapiens), P00519+P11274+P40337 [F317V]; experiment: Protac activity against VHL/BCR-ABL F317V mutant (unknown origin) expressed in human U937 cells assessed as induction of BCR-ABL degradation incubated for 16 hrs by Western blot analysis; assay type: cell-based
# K562 [23] = experiment: Growth inhibition of human K562 cells assessed as reduction in cell density at 20 times IC50 incubated for 12 hrs followed by drug wash-out and incubation in drug-free medium up to 144 hrs by CCK8 assay; assay type: functional, cell-based
# [24] = molecular target: von Hippel-Lindau disease tumor suppressor/Tyrosine-protein kinase ABL2 (Homo sapiens) (UniProt P42684); experiment: Protac activity against VHL/BCR-ABL in human K562 cells assessed as reduction in ABL2 protein levels at 100 nM incubated for 16 hrs by multiplexed tandem mass spectrometry
smiles,measurement,setting,value
Cc1nc(Nc2ncc(C(=O)Nc3c(C)cccc3Cl)s2)cc(N2CCN(C(=O)CCCCCCC(=O)N[C@H](C(=O)N3C[C@H](O)C[C@H]3C(=O)NCc3ccc(-c4scnc4C)cc3)C(C)(C)C)CC2)n1,IC50,K562 [1],24 nM
same,inhibition,[2],Active
same,inhibition,[3],Active
same,inhibition,[4],Active
same,growth inhibition (GI),KU812 cell line,Active
same,growth inhibition (GI),SUP-B15,Active
same,growth inhibition (GI),HL-60,inactive
same,growth inhibition (GI),HEK293,Non-Toxic
same,Activity,[5],Tde
same,Activity,[6],inactive
same,Activity,[7],Dose-dependent effect
same,Activity,[8],Active
same,Activity,[9],inactive
same,Activity,[10],Active
same,Activity,[11],Active
same,permeability,[12],Permeable
same,Activity,K562 [13],Non-Toxic
same,Activity,K562 [14],Non-Toxic
same,Activity,[15],Dose-dependent effect
same,Activity,[16],Dose-dependent effect
same,Activity,[17],inactive
same,Activity,[18],inactive
same,Activity,[19],Non-Toxic
same,inhibition,Mus musculus,Active
same,Activity,[20],Dose-dependent effect
same,Activity,[21],Dose-dependent effect
same,Activity,[22],Dose-dependent effect
same,growth inhibition (GI),K562 [23],Active
same,Activity,[24],Active
